Laboratory results from ChEMBL document CHEMBL5321219, “Selective degradation of cellular BRD3 and BRD4-L promoted by PROTAC molecules in six cancer cell lines” (Eur J Med Chem, 2023).
Activity calls are given as the source filed them. No cut-off for these calls is given here.

Experiments:
[1] = target: T1, Protein cereblon/Bromodomain-containing protein 3 (Homo sapiens) (UniProt Q15059+Q96SW2); assay: In vivo PROTAC activity at CRBN/BRD3 in SCID mouse xenografted with human MM1.S cells assessed as reduction in BRD3 protein level in tumor at 1 to 5 mg/kg, iv measured after 6 hrs by Western blot analysis; type: functional, organism-based; settings: dose 1-5 mg/kg
MM1.S [2] = assay: Induction of cell cycle arrest in human MM1.S cells assessed as accumulation of cells at G1 phase incubated for 24 hrs by flow cytometry analysis; type: functional, cell-based; settings: dose 1-300 nM
[3] = target: T2, Protein cereblon/Bromodomain-containing protein 4 (Homo sapiens) (UniProt O60885+Q96SW2); assay: In vivo PROTAC activity at CRBN/BRD4-L in SCID mouse xenografted with human MM1.S cells assessed as reduction in BRD4-L protein level in tumor at 5 mg/kg, iv measured after 24 hrs by Western blot analysis; type: functional, organism-based
[4] = target: T2, Protein cereblon/Bromodomain-containing protein 4 (Homo sapiens); assay: In vivo PROTAC activity at CRBN/BRD4-L in SCID mouse xenografted with human MM1.S cells assessed as reduction in BRD4-L protein level in tumor at 1 to 5 mg/kg, iv measured after 6 hrs by Western blot analysis; type: functional, organism-based; settings: dose 1-5 mg/kg
[5] = target: T2, Protein cereblon/Bromodomain-containing protein 4 (Homo sapiens); assay: In vivo PROTAC activity at CRBN/BRD4-S in SCID mouse xenografted with human MM1.S cells assessed as reduction in BRD4-S protein level in tumor at 1 to 5 mg/kg, iv measured after 6 hrs by Western blot analysis; type: functional, organism-based; settings: dose 1-5 mg/kg
MM1.S [6] = assay: Antiproliferative activity against human MM1.S cells assessed as cell growth inhibition measured after 4 days by CellTitre-Glo assay; type: functional, cell-based; settings: 96 h
[7] = target: T2, Protein cereblon/Bromodomain-containing protein 4 (Homo sapiens); assay: PROTAC activity at CRBN/BRD4-L in human MM1.S cells assessed as induction of protein degradation at 1 uM measured after 1 to 24 hrs by Western blot analysis; type: cell-based; settings: time 1-24 hrs
MV4-11 = assay: Antiproliferative activity against human MV4-11 cells assessed as cell growth inhibition measured after 3 days by CellTitre-Glo assay; type: functional, cell-based; settings: MV4-11, 72 h
[8] = Cmax in C57 mouse at 3 mg/kg, iv measured upto 24 hrs by LC-MS/MS analysis; type: ADME, organism-based; set-up: dose 3 mg/kg, time < 24 hrs, route iv; settings: in vivo
MM1.S [9] = assay: Antitumor activity against human MM1.S cells xenografted in SCID mouse assessed as tumor growth inhibition at 1 mg/kg, iv administered once daily via tail vein for 14 consecutive days and measured twice a week relative to control; type: functional; settings: 336 h, time 14 day, read-out: TGI
[10] = Tmax in C57 mouse at 3 mg/kg, po measured upto 24 hrs by LC-MS/MS analysis; type: ADME, organism-based; settings: in vivo
[11] = target: T3, Protein cereblon/Bromodomain-containing protein 2 (Homo sapiens) (UniProt P25440+Q96SW2); assay: PROTAC activity at CRBN/BRD2 in human MM1.S cells assessed as induction of protein degradation at 1 uM measured after 1 to 24 hrs by Western blot analysis; type: cell-based; settings: time 1-24 hrs
[12] = Toxicity in SCID mouse xenografted with human MM1.S cells assessed as loss of body weight at 5 mg/kg, iv administered once daily via tail vein for 8 consecutive days and measured twice a week; type: organism-based; settings: in vivo, 192 h, time 8 day
[13] = Toxicity in SCID mouse xenografted with human MM1.S cells assessed as effect on body weight at 1 mg/kg, iv administered once daily via tail vein for 14 consecutive days and measured twice a week; type: organism-based; settings: in vivo, 336 h, time 14 day
[14] = target: T1, Protein cereblon/Bromodomain-containing protein 3 (Homo sapiens); assay: In vivo PROTAC activity at CRBN/BRD3 in SCID mouse xenografted with human MM1.S cells assessed as reduction in BRD3 protein level in tumor at 5 mg/kg, iv measured after 24 hrs by Western blot analysis; type: functional, organism-based
[15] = target: T1, Protein cereblon/Bromodomain-containing protein 3 (Homo sapiens); assay: In vivo PROTAC activity at CRBN/BRD3 in SCID mouse xenografted with human MM1.S cells assessed as reduction in BRD3 protein level in tumor at 1 mg/kg, iv measured after 24 hrs by Western blot analysis; type: functional, organism-based
[16] = target: T1, Protein cereblon/Bromodomain-containing protein 3 (Homo sapiens); assay: PROTAC activity at CRBN/BRD3 in human MM1.S cells assessed as induction of protein degradation at 1 uM measured after 1 to 24 hrs by Western blot analysis; type: cell-based; settings: time 1-24 hrs
MM1.S [17] = assay: Downregulation of c-Myc expression in human MM1.S cells at 30 nM measured after 1 to 24 hrs by Western blot analysis; type: functional, cell-based; settings: time 1-24 hrs
[18] = Cmax in C57 mouse at 3 mg/kg, po measured upto 24 hrs by LC-MS/MS analysis; type: ADME, organism-based; set-up: dose 3 mg/kg, time < 24 hrs, route po; settings: in vivo
[19] = AUC (0 to t) in C57 mouse at 3 mg/kg, iv measured upto 24 hrs by LC-MS/MS analysis; type: ADME, organism-based; set-up: dose 3 mg/kg, time < 24 hrs, route iv; settings: in vivo
[20] = target: T4, Bromodomain-containing protein 3 (Homo sapiens, UniProt Q15059); assay: Binding affinity to recombinant human BRD3 BD2 (306 to 417 residues) assessed as inhibition constant by fluorescence polarization binding assay
[21] = target: T3, Protein cereblon/Bromodomain-containing protein 2 (Homo sapiens); assay: In vivo PROTAC activity at CRBN/BRD2 in SCID mouse xenografted with human MM1.S cells assessed as reduction in BRD2 protein level in tumor at 1 to 5 mg/kg, iv measured after 6 hrs by Western blot analysis; type: functional, organism-based; settings: dose 1-5 mg/kg
[22] = target: T3, Protein cereblon/Bromodomain-containing protein 2 (Homo sapiens); assay: In vivo PROTAC activity at CRBN/BRD2 in SCID mouse xenografted with human MM1.S cells assessed as reduction in BRD2 protein level in tumor at 5 mg/kg, iv measured after 24 hrs by Western blot analysis; type: functional, organism-based
[23] = Clearance in C57 mouse at 3 mg/kg, iv measured upto 24 hrs by LC-MS/MS analysis; type: ADME, organism-based; settings: in vivo
MM1.S [24] = assay: Downregulation of c-Myc protein expression in human MM1.S cells at 0.1 to 30 nM measured after 24 hrs by Western blot analysis; type: functional, cell-based; settings: dose 0.1-30 nM
[25] = Tmax in C57 mouse at 3 mg/kg, iv measured upto 24 hrs by LC-MS/MS analysis; type: ADME, organism-based; settings: in vivo
[26] = target: T4, Bromodomain-containing protein 3; assay: Binding affinity to recombinant human BRD3 BD1 (24 to 144 residues) assessed as inhibition constant by fluorescence polarization binding assay
[27] = target: T1, Protein cereblon/Bromodomain-containing protein 3 (Homo sapiens); assay: PROTAC activity at CRBN/BRD3 in human MM1.S cells assessed as induction of protein degradation at 30 nM by Western blot analysis; type: cell-based; settings: TDE = time-dependent effect
[28] = target: T2, Protein cereblon/Bromodomain-containing protein 4 (Homo sapiens); assay: In vivo PROTAC activity at CRBN/BRD4-S in SCID mouse xenografted with human MM1.S cells assessed as reduction in BRD4-S protein level in tumor at 5 mg/kg, iv measured after 24 hrs by Western blot analysis; type: functional, organism-based
[29] = Oral bioavailability in C57 mouse at 3 mg/kg measured upto 24 hrs by LC-MS/MS analysis; type: ADME, organism-based; settings: in vivo
[30] = target: T2, Protein cereblon/Bromodomain-containing protein 4 (Homo sapiens); assay: PROTAC activity at CRBN/BRD4-L in human MM1.S cells assessed as induction of protein degradation at 30 nM by Western blot analysis; type: cell-based; settings: TDE = time-dependent effect
[31] = Half life in C57 mouse at 3 mg/kg, iv measured upto 24 hrs by LC-MS/MS analysis; type: ADME, organism-based; settings: in vivo
[32] = Clearance in C57 mouse at 3 mg/kg, po measured upto 24 hrs by LC-MS/MS analysis; type: ADME, organism-based; settings: in vivo
[33] = AUC (0 to t) in C57 mouse at 3 mg/kg, po measured upto 24 hrs by LC-MS/MS analysis; type: ADME, organism-based; set-up: time < 24 hrs, dose 3 mg/kg, route po; settings: in vivo
[34] = target: T2, Protein cereblon/Bromodomain-containing protein 4 (Homo sapiens); assay: PROTAC activity at CRBN/BRD4-S in human MM1.S cells assessed as induction of protein degradation at 1 uM measured after 1 to 24 hrs by Western blot analysis; type: cell-based; settings: time 1-24 hrs
MM1.S [35] = assay: Antitumor activity against human MM1.S cells xenografted in SCID mouse assessed as tumor growth inhibition at 5 mg/kg, iv administered once daily via tail vein for 8 consecutive days and measured twice a week relative to control; type: functional; settings: 192 h, time 8 day, read-out: TGI

T1 sequence (Q15059 2-726 limits assumed): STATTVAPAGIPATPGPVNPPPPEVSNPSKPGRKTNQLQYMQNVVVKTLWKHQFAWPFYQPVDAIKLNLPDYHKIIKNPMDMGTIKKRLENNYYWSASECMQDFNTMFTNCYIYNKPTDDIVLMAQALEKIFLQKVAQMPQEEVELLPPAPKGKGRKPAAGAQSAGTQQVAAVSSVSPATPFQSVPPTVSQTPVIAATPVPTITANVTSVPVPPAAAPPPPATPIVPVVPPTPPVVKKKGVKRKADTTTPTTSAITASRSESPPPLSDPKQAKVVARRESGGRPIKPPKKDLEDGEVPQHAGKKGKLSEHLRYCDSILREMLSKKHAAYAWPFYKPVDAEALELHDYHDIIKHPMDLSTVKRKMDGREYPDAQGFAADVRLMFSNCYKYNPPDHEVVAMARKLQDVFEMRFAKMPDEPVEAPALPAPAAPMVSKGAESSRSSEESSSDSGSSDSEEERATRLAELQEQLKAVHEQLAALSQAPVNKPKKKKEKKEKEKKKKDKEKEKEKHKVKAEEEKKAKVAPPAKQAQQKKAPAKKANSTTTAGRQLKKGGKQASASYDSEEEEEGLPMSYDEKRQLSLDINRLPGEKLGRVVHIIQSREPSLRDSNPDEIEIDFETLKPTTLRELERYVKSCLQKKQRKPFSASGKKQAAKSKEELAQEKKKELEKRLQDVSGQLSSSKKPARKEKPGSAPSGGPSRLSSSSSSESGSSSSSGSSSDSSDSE
T1 sequence (Q96SW2 whole entry partner): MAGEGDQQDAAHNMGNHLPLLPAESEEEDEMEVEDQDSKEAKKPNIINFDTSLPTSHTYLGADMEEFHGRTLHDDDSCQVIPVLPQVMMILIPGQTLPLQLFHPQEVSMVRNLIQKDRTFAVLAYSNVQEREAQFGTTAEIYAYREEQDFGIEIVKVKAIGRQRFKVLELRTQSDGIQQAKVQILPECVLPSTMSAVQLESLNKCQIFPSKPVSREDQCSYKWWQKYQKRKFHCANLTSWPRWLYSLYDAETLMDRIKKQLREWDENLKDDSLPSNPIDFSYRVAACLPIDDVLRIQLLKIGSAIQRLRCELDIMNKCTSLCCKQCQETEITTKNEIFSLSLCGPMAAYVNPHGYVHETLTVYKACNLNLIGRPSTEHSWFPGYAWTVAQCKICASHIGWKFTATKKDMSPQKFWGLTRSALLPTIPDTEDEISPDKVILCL
T3 sequence (P25440 whole entry, looked up): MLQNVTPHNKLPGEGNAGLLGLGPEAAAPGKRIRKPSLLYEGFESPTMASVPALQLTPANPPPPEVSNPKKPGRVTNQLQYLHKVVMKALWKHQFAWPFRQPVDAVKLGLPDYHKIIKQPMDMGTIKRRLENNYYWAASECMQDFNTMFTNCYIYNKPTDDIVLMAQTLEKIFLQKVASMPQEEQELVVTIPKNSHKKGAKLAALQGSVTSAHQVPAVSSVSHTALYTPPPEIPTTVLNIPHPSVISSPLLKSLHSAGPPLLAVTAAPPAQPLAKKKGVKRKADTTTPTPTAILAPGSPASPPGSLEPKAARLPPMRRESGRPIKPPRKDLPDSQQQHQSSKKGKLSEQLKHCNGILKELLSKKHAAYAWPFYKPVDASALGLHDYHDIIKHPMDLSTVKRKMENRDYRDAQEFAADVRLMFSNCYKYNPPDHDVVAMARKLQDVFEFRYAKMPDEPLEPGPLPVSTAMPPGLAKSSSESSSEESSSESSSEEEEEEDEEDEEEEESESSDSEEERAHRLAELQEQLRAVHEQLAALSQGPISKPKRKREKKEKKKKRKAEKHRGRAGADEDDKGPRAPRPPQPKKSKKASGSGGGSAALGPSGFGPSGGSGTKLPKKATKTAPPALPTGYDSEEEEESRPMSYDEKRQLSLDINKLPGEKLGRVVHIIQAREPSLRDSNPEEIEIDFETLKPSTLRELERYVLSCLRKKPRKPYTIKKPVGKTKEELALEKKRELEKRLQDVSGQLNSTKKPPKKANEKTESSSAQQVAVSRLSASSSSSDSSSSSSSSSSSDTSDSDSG
T3 sequence (Q96SW2 whole entry, looked up): as the sequence (Q96SW2 whole entry partner) above
T2 sequence (Q96SW2 whole entry, looked up, other chains not shown): as the sequence (Q96SW2 whole entry partner) above
T4 sequence (Q15059 whole entry, the tested form may be a part): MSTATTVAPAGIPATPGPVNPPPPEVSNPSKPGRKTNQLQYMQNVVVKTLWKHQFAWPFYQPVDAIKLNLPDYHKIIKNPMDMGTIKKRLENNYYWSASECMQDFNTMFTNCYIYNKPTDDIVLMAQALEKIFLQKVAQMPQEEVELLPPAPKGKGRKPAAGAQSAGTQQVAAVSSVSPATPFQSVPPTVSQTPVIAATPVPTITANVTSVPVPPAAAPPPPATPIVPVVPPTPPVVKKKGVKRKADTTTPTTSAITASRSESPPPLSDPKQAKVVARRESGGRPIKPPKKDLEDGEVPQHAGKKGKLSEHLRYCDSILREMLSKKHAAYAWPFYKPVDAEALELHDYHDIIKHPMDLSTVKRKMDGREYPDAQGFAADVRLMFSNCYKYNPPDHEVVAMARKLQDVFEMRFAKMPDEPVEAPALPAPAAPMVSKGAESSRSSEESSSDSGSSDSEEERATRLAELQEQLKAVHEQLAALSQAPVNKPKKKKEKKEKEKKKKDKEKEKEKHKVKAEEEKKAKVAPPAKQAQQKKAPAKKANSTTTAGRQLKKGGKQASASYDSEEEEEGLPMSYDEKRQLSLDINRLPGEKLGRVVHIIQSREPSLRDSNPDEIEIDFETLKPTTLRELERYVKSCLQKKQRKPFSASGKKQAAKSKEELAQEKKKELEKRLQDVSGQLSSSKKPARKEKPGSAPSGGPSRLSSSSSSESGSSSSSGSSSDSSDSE

Compound: Cc1nnc2n1-c1ccc(-c3ccc(CN(C)CCCCc4cccc5c4CN(C4CCC(=O)NC4=O)C5=O)cc3)cc1C(Nc1ccc(Cl)cc1)CC2 (stereo unspecified)
- Activity [1]: Active
- Activity (MM1.S [2]): Dose-Dependent Effect
- Activity [3]: inactive
- Activity [4]: Active
- Activity [5]: inactive
- IC50 (MM1.S [6]): 85.4 nM
- Activity [7]: Active
- IC50 (MV4-11): 7.46 nM
- Cmax [8]: 7410 ng/mL
- inhibition in vivo at 1 mg/kg (MM1.S [9]): 40%
- Tmax [10]: 24 min
- Activity [11]: Active
- Activity [12]: Toxic
- Activity [13]: Non-Toxic
- Activity [14]: Active
- Activity [15]: inactive
- Activity [16]: Active
- Activity (MM1.S [17]): Active
- Cmax [18]: 51 ng/mL
- AUCt [19]: 2961 ng·h/mL
- Ki [20]: 2.8 nM
- Activity [21]: inactive
- Activity [22]: inactive
- clearance [23]: 16.9 mL/min/kg
- Activity (MM1.S [24]): Active
- Tmax [25]: 6 min
- Ki [26]: 16.9 nM
- Activity [27]: Tde
- Activity [28]: inactive
- F [29]: 2.14%
- Activity [30]: Tde
- half-life [31]: 30 min
- CL/F [32]: 1240 mL/min/kg
- AUCt [33]: 26 ng·h/mL
- Activity [34]: inactive
- inhibition in vivo at 5 mg/kg (MM1.S [35]): 64%
